Values quoted from earlier work, collected in patent publication US7041851B2, “Fluorinated phenyl thiophenyl derivatives and their use for imaging serotonin transporters” (The Trustees of the University of Pennsylvania, priority 2002, dated 2006).

Biological target: T1, SERT (Rattus norvegicus, UniProt P31652)
T1 construct: from tissue; host or cells: rat brain in vivo (hypothalamus, striatum, hippocampus, cerebellum)
Conditions: comparison with [18F]ACF, hypothalamus region; cited from earlier work

T1 sequence (P31652 whole entry): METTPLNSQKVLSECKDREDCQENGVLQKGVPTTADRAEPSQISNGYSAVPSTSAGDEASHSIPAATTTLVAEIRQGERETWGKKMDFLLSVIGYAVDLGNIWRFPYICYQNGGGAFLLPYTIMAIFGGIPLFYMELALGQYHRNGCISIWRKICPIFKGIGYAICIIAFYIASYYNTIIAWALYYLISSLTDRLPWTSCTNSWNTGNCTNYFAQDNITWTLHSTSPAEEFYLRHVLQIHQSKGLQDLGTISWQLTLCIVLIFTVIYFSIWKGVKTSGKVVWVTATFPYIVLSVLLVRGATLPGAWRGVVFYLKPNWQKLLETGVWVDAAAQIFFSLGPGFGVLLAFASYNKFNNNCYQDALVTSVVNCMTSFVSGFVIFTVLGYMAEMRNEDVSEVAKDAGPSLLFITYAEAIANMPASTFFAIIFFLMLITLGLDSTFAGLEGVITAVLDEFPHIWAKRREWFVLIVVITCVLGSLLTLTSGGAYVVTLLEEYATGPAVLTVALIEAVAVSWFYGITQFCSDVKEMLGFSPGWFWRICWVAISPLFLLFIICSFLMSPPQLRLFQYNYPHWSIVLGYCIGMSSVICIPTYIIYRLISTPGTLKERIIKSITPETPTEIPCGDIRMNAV

With `CN(C)Cc1ccccc1Sc1ccc([125I])cc1N` [[^125I]ADAM] as the compound, how does the “Time of peak uptake” value read?
Its value is 4 h.
